According to patent US9506039B2, “Efficient method for establishing induced pluripotent stem cells” (Kyoto University, priority 2010, dated 2016):

B1: Wnt3a: Wnt3a purchased from R&D systems Inc., added to the medium (protein, UniProt P56704 19-352, looked up)
Protein Wnt-3a: SYPIWWSLAVGPQYSSLGSQPILCASIPGLVPKQLRFCRNYVEIMPSVAEGIKIGIQECQHQFRGRRWNCTTVHDSLAIFGPVLDKATRESAFVHAIASAGVAFAVTRSCAEGTAAICGCSSRHQGSPGKGWKWGGCSEDIEFGGMVSREFADARENRPDARSAMNRHNNEAGRQAIASHMHLKCKCHGLSGSCEVKTCWWSQPDFRAIGDFLKDKYDSASEMVVEKHRESRGWVETLRPRYTYFKVPTERDLVYYEASPNFCEPNPETGSFGTRDRTCNVSSHGIDGCDLLCCGRGHNARAERRREKCRCVFHWCCYVSCQECTRVYDVHTCK

tested on: human dermal fibroblasts (HDF: cell name 1616); experiment: iPS cell colony establishment, 3 genes (Oct3/4, Sox2, Klf4) plus added gene or compound; assay type: cell-based; settings: Example 9, FIG. 9; Oct3/4, Sox2, Klf4 plus agent in medium (PS48 10 μM, CHIR99021 1 μM, Wnt3a 10 ng/ml); day 32
Description: The following genes were introduced into human dermal fibroblasts (HDF: cell name 1616, purchased from Cell applications, Inc.) in the same manner as in the aforementioned Example 1.
In addition, the culture condition was changed (5×10^5 cells/well), and the following genes were introduced into human dermal fibroblasts (HDF: cell name 1616, purchased from Cell applications, Inc.) in the same manner.
In the same manner as in the aforementioned Example 1, the following genes were introduced into dermal fibroblasts (HDF: cell name 1616) in the presence of each low-molecular-weight compound.
The following genes were introduced into dermal fibroblasts (HDF: cell name 1616) in the same manner as in the aforementioned Example 1.
The following genes were introduced into human dermal fibroblasts (HDF: cell name 1616) in the same manner as in the aforementioned Example 1.
Furthermore, the following genes were introduced into human dermal fibroblasts (HDF: cell name 1616).

Molecule	number of human iPS cell colonies
Cc1c[nH]c(-c2cnc(NCCNc3ccc(C#N)cn3)nc2-c2ccc(Cl)cc2Cl)n1 [CHIR99021]	tended to decrease
O=C(O)/C=C(/CCc1ccc(Cl)cc1)c1ccccc1 [PS48]	increased significantly
B1	increased significantly
